Data taken from patent US20080090278A1, “METHOD FOR ENHANCING STABILITY OF A COMPOSITION COMPRISING SOLUBLE GLUCOSE DEHYDROGENASE (GDH)” (TOYO BOSEKI KABUSHIKI KAISHA, priority 2006, published 2008).

Key:
Type in all cases: physicochemical
[1] = tested on: recombinant FAD-GDH preparation (rAO-FAD-GDH) derived from Aspergillus oryzae; experiment: Storage stability of freeze-dried (powdered) rAO-FAD-GDH with stabilizing agents (Example 8); conditions: for storage stabilization effect on the powdered enzyme (in words): Example 8, Tables 7 and 8; for GDH activity Residual ratio (%): 70% humidity
Method: (§1) The reaction reagent (3 mL) is preliminarily heated at 37° C. for 5 minutes. The GDH solution (0.1 mL) is added and gently mixed, subsequently the change of absorbance at 600 nm is recorded for 5 minutes using the spectrophotometer controlled to 37° C. using water as the control, and the change of absorbance per one minute (ΔODTEST) is calculated from the linear portion of the record. The solvent in which GDH will be dissolved in place of the blinded GDH solution is added to the reagent mixture, and the change of absorbance (ΔODBLANK) per one minute is measured. The GDH activity is calculated from these values according to the following formula. One unit (U) in the GDH activity is defined as the amount of the enzyme which reduces […] DCPIP for one minute in the presence of 200 mM D-glucose. Activity (U/mL)=[−(ΔODTEST−ΔODBLANK)×3.0×dilution scale]/(16.3×0.1×1.0) In the above formula, 3.0 represents a liquid amount (mL) of the reaction reagent+the enzyme solution, 16.3 represents a millimolar molecular absorbance coefficient (cm^2/μmol) in the condition for measuring this enzyme, 0.1 represents the liquid amount of the enzyme solution (mL) and 1.0 represents a light path length (cm) of the cell.
The study was performed using the recombinant FAD-GDH preparation (rAO-FAD-GDH) derived from Aspergillus oryzae obtained in Example 1 in accordance with the method for measuring the FAD-GDH activity in Test Example 1 above. The amount of the protein which occupied in the FAD-GDH enzyme solution was measured, and 1 mL of the solution in which the stabilizing agent corresponding to 60% or 30% relative to this had been dissolved therein was prepared.
Several vials in which 0.2 mL of the enzyme solution containing each stabilizing agent had been correctly dispensed were prepared. As the control, the vials in which the stabilizing agent had not been added was prepared. The prepared vials were subjected to vacuum freeze-dry (FDR) to completely evaporate the water. Then, only two samples in which the same stabilizing agent had been added were subjected to the measurement of the activity. Meanwhile, the remaining vials were treated at 25° C. at a humidity of 70% for several hours, and then stored at 37° C. for one week. Subsequently, the residual activity was measured. The residual activity ratio (%) was calculated by making the average activity immediately after FDR 100% and measuring the average activity of the samples after storing at 37° C.

[2] = tested on: recombinant FAD-GDH (rAO-FAD-GDH) derived from Aspergillus oryzae; experiment: Thermal stabilization effect of stabilizing agents on rAO-FAD-GDH in solution (Examples 3-6); conditions: for thermal stabilization effect on FAD-GDH (in words): rAO-FAD-GDH, 50° C. for 15 minutes, Example 3; for Residual activity ratio (%) after treatment at 50° C., 15 min: stabilizer final concentration 1%, rAO-FAD-GDH about 2 U/mL, 50 mM potassium phosphate buffer pH 5.5, 0.1% Triton X-100, 4° C. sample = 100; for GDH Residual activity ratio (%) after treatment at 50° C., 15 min: final concentration BSA 2.5%, serine 10%, alone or combined
Method: Enhancement of the thermal stability referred to herein means increasing of a residual ratio (%) of the GDH enzyme kept after giving the treatment with heat at a certain temperature for a certain time period to the composition comprising the GDH enzyme. In the present invention, the activity in the sample stored at 4° C. which is nearly completely kept is made 100%, this is compared with the activity in the GDH solution after giving the treatment with heat at a certain-temperature for a certain time period, and the residual ratio of the enzyme is calculated.
In the method for measuring the activity described in the method for measuring the GDH enzyme activity described later, an activity value (a) of GDH in the solution stored at 4° C. and an activity value (b) of GDH after giving the treatment with heat at a certain temperature for a certain time period were measured, a relative value[(b)/(a)×100] when the activity value (a) was made 100 was calculated. This relative value was made the residual ratio (%). Comparing the presence with the absence of the added compound, when the residual ratio was increased by the addition of the compound, it was determined that the thermal stability was enhanced.
In the present invention, the activity of FAD-dependent GDH is measured as follows.
The reaction-reagent is made by mixing 15.6 mL of the PIPES buffer, 0.2 mL of the DCPIP solution and 4 mL of the D-glucose solution.
as §1
The study was performed in accordance with the method for measuring the FAD-GDH activity in Test Example 1 described above.
First, 50 mL of an enzyme solution obtained by dissolving the recombinant FAD-GDH (rAO-FAD-GDH)-derived from Aspergillus oryzae obtained in Example 1 at about 2 U/mL in an enzyme dilution solution (50 mM potassium phosphate buffer, pH 5.5, 0.1% Triton X-100) was prepared. Two tubes in which each stabilizing agent described in Table 1 had been added at each final concentration to 0.9 mL of this enzyme solution to make the total volume 1.0 mL were prepared.
(§2) In two tubes, one tube was stored at −4° C. and another tube was treated at 50° C. for 15 minutes. Then, the FAD-GDH activity in each tube was measured. The enzyme activity in the tube stored at 4° C. was made 100, and comparing with it, the activity value after being treated at 50° C. for 15 minutes was calculated as the residual activity ratio (%).
The method was in accordance with Example 3 described above.
The methods were in accordance with Example 3 above.

[3] = tested on: recombinant FAD-GDH (rAO-FAD-GDH) derived from Aspergillus oryzae; experiment: as above
[4] = tested on: recombinant FAD-GDH (rAT-FAD-GDH) derived from Aspergillus terreus; experiment: Thermal stabilization effect of stabilizing agents on rAT-FAD-GDH in solution (Example 9); conditions: for Residual activity ratio (%) / GLD activity value (U/ml) 50° C., 15 min: Table 10, buffer 50 mM K-PB, stabilizer at each final concentration described in Table 1; for Residual activity ratio (%): 50° C., 15 min versus 4° C.; for thermal stabilization effect on FAD-GDH (in words): rAT-FAD-GDH, 50° C. for 15 minutes, Example 9
Method: as §1, with “D-glucose.” for “D-glucose. Activity (U/mL)=[−(ΔODTEST−ΔODBLANK)×3.0×dilution scale]/(16.3×0.1×1.0) In the above formula, 3.0 represents a liquid amount (mL) of the reaction reagent+the enzyme solution, 16.3 represents a millimolar molecular absorbance coefficient (cm^2/μmol) in the condition for measuring this enzyme, 0.1 represents the liquid amount of the enzyme solution (mL) and 1.0 represents a light path length (cm) of the cell.”
Two tubes in which each stabilizing agent described in Table 1 had been added at each final concentration to 0.9 mL of this enzyme solution to make the total volume 1.0 mL were prepared.
as §2, with “4°” for “−4°”

[5] = Table 4, each stabilizer at final concentration 1%, alone or in pairs

storage stabilization effect on the powdered enzyme (in words) [1] | GDH activity Residual ratio (%) ([1]; Table 8, stabilizer 60%, 25° C., 7 h, then 37° C. for 1 week) | thermal stabilization effect on FAD-GDH (in words) [2] | Residual activity ratio (%) after treatment at 50° C., 15 min [2] [%] | GDH Residual activity ratio (%) after treatment at 50° C., 30 min [3, 5] [%] | GDH Residual activity ratio (%) after treatment at 50° C., 30 min ([3]; final concentration 0.01%) [%] | GDH Residual activity ratio (%) after treatment at 50° C., 30 min ([3]; final concentration 0.1%) [%] | GDH Residual activity ratio (%) after treatment at 50° C., 30 min ([3]; final concentration 1%) [%] | thermal stabilization effect of trehalose (in words) ([3]; final concentration of 0.01%, 50° C., 30 min) | Residual activity ratio (%) [4] [%] | thermal stabilization effect on FAD-GDH (in words) [4] | GDH activity Residual ratio (%) ([1]; Table 7, stabilizer 60%, 25° C., 24 h, then 37° C. for 1 week, activity immediately after FDR = 100%) | GDH Residual activity ratio (%) after treatment at 50° C., 15 min ([2]; Table 3) [%] | GDH Residual activity ratio (%) after treatment at 50° C., 15 min ([2]; Table 3 second column) [%] | Compound | GDH activity (U/vial) Immediately after pulverization ([1]; Table 8, stabilizer 60%) [U/vial] | GDH activity (U/vial) Immediately before pulverization ([1]; Table 8, stabilizer 60%) [U/vial] | GDH activity (U/vial) At 37° C. for 1 week ([1]; Table 8, stabilizer 60%, after treatment at 70% humidity, 25° C., 7 h, then 37° C. for 1 week) [U/vial] | GLD activity value (U/ml) 50° C., 15 min [4] [U/ml] | GDH activity (kU/vial) Immediately after pulverization ([1]; Table 7, stabilizer 60% relative to FAD-GDH protein, vacuum freeze-dry) [kU/vial] | GDH activity (kU/vial) After 1 week at 37° C. ([1]; Table 7, stabilizer 60%, after treatment at 70% humidity, 25° C., 24 h, then 37° C. for 1 week) [kU/vial]
enhance the stability | 48.6 | high effect | 64.7 | 39.10 | 11.2 | 20.4 | 42.3 | the stabilization effect was exerted | 15.8 | high effect |  |  |  | O.O.OC[C@H]1O[C@H](O[C@H]2O[C@H](CO)[C@@H](O)[C@H](O)[C@H]2O)[C@H](O)[C@@H](O)[C@@H]1O [D-(+)-trehalosedihydrate] | 401 | 397 | 195 | 0.431 |  | 
enhance the stability |  | high effect | 27.0 |  |  |  |  |  | 3.0 | high effect | 41.3 | 33 | 11.5 | N[C@@H](CO)C(=O)O [L-serine] |  |  |  | 0.078 | 19.8 | 8.2
 |  | high effect | 65.3 | 47.78 |  |  |  |  | 16.5 | high effect |  |  |  | O=C[C@@H](O)[C@@H](O)[C@H](O)[C@H](O)CO [D-(+)-mannose] |  |  |  | 0.448 |  | 
 |  | high effect | 26.4 | 4.84 |  |  |  |  | 3.3 | high effect |  |  |  | NCC(=O)O [Glycine] |  |  |  | 0.094 |  | 
